Data as given in paper PMC8316439, “An enzymatic activation of formaldehyde for nucleotide methylation” (Nature Communications, 2021).

How the values were obtained:
ThyX [1] = target: T1, ThyX (Thermotoga maritima, UniProt Q9WYT0); assay: stopped-flow kinetics of reduced ThyX-dUMP (kon/koff); type: binding
T1 sequence (Q9WYT0 1-220): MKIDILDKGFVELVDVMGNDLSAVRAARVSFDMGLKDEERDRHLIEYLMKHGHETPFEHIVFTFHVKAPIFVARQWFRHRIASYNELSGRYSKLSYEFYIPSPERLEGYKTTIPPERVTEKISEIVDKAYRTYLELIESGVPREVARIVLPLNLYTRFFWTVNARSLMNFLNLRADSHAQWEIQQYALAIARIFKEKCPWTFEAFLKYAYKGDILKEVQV

ThyX [2] = target: T1, ThyX; assay: anaerobic methylation assay with purified ThyX (MS, […]-NMR); stopped-flow of FADH−•dUMP complex; type: biochemical

## C=O [formaldehyde]
ThyX [1]
  Kd: ~20 mM

## O=c1ccn([C@H]2C[C@H](O)[C@@H](COP(=O)(O)O)O2)c(=O)[nH]1 [dUMP]
ThyX [2]
  anaerobic methylation assay with purified ThyX (MS, 13C-NMR); stopped-flow of FA: confirmed the formation of dTMP only in the simultaneous presence of ThyX, NADPH, and CH2O
